Laboratory results reported in paper PMC2363476 (British Journal of Cancer, 2000).
Structures can show the parent of a compound that is named as a salt. Where two headings read alike, the source gives them in different places.

Assays:
[1] = Plasma pharmacokinetics of irinotecan and SN-38 (reversed-phase HPLC); details: for SN-38/irinotecan AUC ratio / SN-38 Cmax / AUC / Cmax: cycle 1; for SN-38 Cmax: observed Cmax; for AUC / Cmax: human, plasma; for AUC: intravenous, Irinotecan AUC; for Cmax: iv, Irinotecan Cmax, estimated at the end of i.v. infusion
Description: Other radiological investi- gations were carried out if indicated. […] Pharmacokinetic analysis was performed using WinNonlin software. […] Patients were seen weekly while on treatment.

[2] = 1995, cited from earlier work
[3] = system: patients with advanced GI tract adenocarcinoma
Description: The primary objectives of this study were to determine the maximum tolerated doses (MTD) of the two drugs given as short infusions every 3 weeks and to determine the toxic effects and DLT of the combination. Secondary objectives were to measure the pharmacokinetics of irinotecan, SN-38 and raltitrexed, to assess the anti-tumour effect of the combination and to recom- mend a safe dose for phase II evaluation. METHODS Definitions DLT was defined as any grade 3 or 4 non-haematological toxicity (except alopecia) following cycle 1; grade 4 neutropenia or grade 3-4 neutropenia associated with fever (> 38C) or sepsis; grade 4 thrombocytopenia or any grade of thrombocytopenia associated with haemorrhage. MTD was defined as the dose level at which 50% of patients experienced the same DLT. […] Exclusion criteria were: previous treatment with topoisomerase I inhibitor; chronic enteropathy; symptomatic cerebral metastasis or leptomeningeal carcinomatosis; unresolved bowel obstruction; pregnancy; previous malignant disease (except adequately treated carcinoma in situ of the cervix uteri or basal cell carcinoma of the skin). Pre-treatment evaluation Prior to entry, patients were evaluated with a physical examina- tion. An ECG, chest X-ray and CT scan of thorax abdomen and pelvis were carried out on all patients. Other radiological investi- gations were carried out if indicated. A full blood count, renal function tests, liver function tests and prothrombin time were also performed. […] A minimum of three patients were recruited to each dose level, and escalation to the next level was carried out when all three had been observed for a minimum of 2 weeks. The initial design was for the level below MTD to be expanded to six patients. […] Patients received six cycles of treatment subject to favourable response. Further cycles could be administered at the investigators' discre- tion if there was evidence of continuing clinical benefit. […] Pharmacokinetic analysis was performed using WinNonlin software. The calculation of kinetic parameters was performed using a 2- or 3-compartment open model for irinotecan, and a non-compartmental analysis for its metabolite SN-38 and raltitrexed. The following parameters were evaluated: maximum plasma concentration (Cmax ); area under the plasma concentration-time curve (AUC); total body clearance (Cl); volume of distribution at steady state (Vss ) and terminal half-life (t1/2 ). Evaluation and management of toxicity No prophylactic antidiarrhoeal treatment was given. […] Patients were seen weekly while on treatment. Toxicities were graded according to the NCI common toxicity criteria (NCI-CTC). […] Any patient experiencing concomitant vomiting was hospitalized to prevent dehydration. […] All patients with febrile neutropaenia were admitted to hospital and treated with intravenous antibiotics. […] In the case of myelosuppression lasting more than 5 weeks from the date of treatment, the patient was withrawn from the study.

[4] = Plasma pharmacokinetics of raltitrexed (radioimmunoassay); assay type: in vivo; details: human, intravenous
Description: […]. […] […]. […] 261 courses were administered. […] Two others had lethargy caused by disease progression. There was no first-cycle neutropenia. […] […]; 6/30 patients (20%) had objective responses. This combination is active with manageable toxicity. […] Other radiological investi- gations were carried out if indicated. […] […]. […] Pharmacokinetic analysis was performed using WinNonlin software. […] […]. Patients were seen weekly while on treatment. […] […]. […] All the other patients were evaluable for toxicity. […] Duration of neutropaenia ranged from 3-8 days. […] Grade 3 lethargy was therefore defined as a DLT. […] […]. […] They therefore continued treatment as scheduled. […] Dose delays were seen after 24/143 cycles (17%). […] Six patients required dose reduction.

[5] = 1998, cited from earlier work
[6] = dose level I (irinotecan 175, raltitrexed 2.6 mg m-2), n=3
[7] = dose level II (irinotecan 200, raltitrexed 2.6 mg m-2), n=3
[8] = dose level III (irinotecan 250, raltitrexed 2.6 mg m-2), n=3
[9] = dose level IV (irinotecan 300, raltitrexed 2.6 mg m-2), n=3
[10] = dose level V (irinotecan 350, raltitrexed 2.6 mg m-2), n=3
[11] = dose level VI (irinotecan 350, raltitrexed 3.0 mg m-2), n=6
[12] = dose level VII (irinotecan 400, raltitrexed 2.6 mg m-2), n=5
[13] = dose level I (irinotecan 175, raltitrexed 2.6 mg m-2), cycle 1, n=3
[14] = dose level II (irinotecan 200, raltitrexed 2.6 mg m-2), cycle 1, n=3
[15] = dose level III (irinotecan 250, raltitrexed 2.6 mg m-2), cycle 1, n=3
[16] = dose level IV (irinotecan 300, raltitrexed 2.6 mg m-2), cycle 1, n=3
[17] = dose level V (irinotecan 350, raltitrexed 2.6 mg m-2), cycle 1, n=3
[18] = dose level VI (irinotecan 350, raltitrexed 3.0 mg m-2), cycle 1, n=6
[19] = dose level VII (irinotecan 400, raltitrexed 2.6 mg m-2), cycle 1, n=6
[20] = 3.0 mg m-2, 14C labelled raltitrexed, single agent, ref Beale et al

CCc1c2c(nc3ccc(O)cc13)-c1cc3c(c(=O)n1C2)COC(=O)[C@]3(O)CC [SN-38]
SN-38 time of maximal concentrations following the end of i.v. infusion ([1]; all dose levels): ≤ 60 min
SN-38/irinotecan AUC ratio [1, 6]: 2.1%
SN-38 Cmax [1, 6]: 48000 µg/mL
SN-38/irinotecan AUC ratio [1, 7]: 3.2%
SN-38 Cmax [1, 7]: 74000 µg/mL
SN-38/irinotecan AUC ratio [1, 8]: 2.3%
SN-38 Cmax [1, 8]: 60000 µg/mL
SN-38/irinotecan AUC ratio [1, 9]: 2.1%
SN-38 Cmax [1, 9]: 71000 µg/mL
SN-38/irinotecan AUC ratio [1, 10]: 2.9%
SN-38 Cmax [1, 10]: 57000 µg/mL
SN-38/irinotecan AUC ratio [1, 11]: 2.1%
SN-38 Cmax [1, 11]: 100000 µg/mL
SN-38/irinotecan AUC ratio [1, 12]: 2.7%
SN-38 Cmax [1, 12]: 117000 µg/mL
SN-38 apparent terminal half-life, mean value ([1]; over the administered dose range): 0.462 days
SN-38/irinotecan AUC ratio, overall mean value ([1]; over the tested dose range): 2.4%
SN-38 t1/2 ([2]; 168 phase I cancer patients treated with irinotecan alone, ref Chabot et al): 0.442 days
SN-38/irinotecan AUC ratio, overall mean value ([2]; irinotecan monotherapy, ref Abigerges et al): 3.1%

CCc1c2c(nc3ccc(OC(=O)N4CCC(N5CCCCC5)CC4)cc13)-c1cc3c(c(=O)n1C2)COC(=O)[C@]3(O)CC [irinotecan, Irinotecan hydrochloride]
AUC [1, 6]: 13100 ng·h/mL
AUC [1, 7]: 16000 ng·h/mL
AUC [1, 8]: 14600 ng·h/mL
AUC [1, 9]: 22600 ng·h/mL
AUC [1, 10]: 26600 ng·h/mL
AUC [1, 11]: 29000 ng·h/mL
AUC [1, 12]: 27000 ng·h/mL
Cmax [1, 6]: 3.53 µg/mL
Cmax [1, 7]: 4.7 µg/mL
Cmax [1, 8]: 5.92 µg/mL
Cmax [1, 9]: 5.98 µg/mL
Cmax [1, 10]: 4.89 µg/mL
Cmax [1, 11]: 5.43 µg/mL
Cmax [1, 12]: 5.41 µg/mL
MTD, irinotecan dose ([3]; with raltitrexed 2.6 mg m-2, 3-weekly (level VII)): 400 mg m-2
recommended dose for phase II evaluation, irinotecan ([3]; with raltitrexed 3.0 mg m-2 every 3 weeks (level VI)): 350 mg m-2

Cc1nc2ccc(CN(C)c3ccc(C(=O)N[C@@H](CCC(=O)O)C(=O)O)s3)cc2c(=O)[nH]1 [raltitrexed]
AUC [4, 13]: 1710 ng·h/mL
Cmax [4, 13]: 0.561 µg/mL
clearance ([4]; dose level I (irinotecan 175, raltitrexed 2.6 mg m-2), cycle 1, n=3, read-out: Raltitrexed Cl (converted)): 50.2 mL/min
Vd ([4]; dose level I (irinotecan 175, raltitrexed 2.6 mg m-2), cycle 1, n=3, read-out: Raltitrexed Vss): 40.7 L
half-life ([4]; dose level I (irinotecan 175, raltitrexed 2.6 mg m-2), cycle 1, n=3, read-out: Raltitrexed t1/2 terminal (converted)): 9.25 days
AUC [4, 14]: 1440 ng·h/mL
Cmax [4, 14]: 0.42 µg/mL
clearance ([4]; dose level II (irinotecan 200, raltitrexed 2.6 mg m-2), cycle 1, n=3, read-out: Raltitrexed Cl (converted)): 78.3 mL/min
Vd ([4]; dose level II (irinotecan 200, raltitrexed 2.6 mg m-2), cycle 1, n=3, read-out: Raltitrexed Vss): 27.3 L
half-life ([4]; dose level II (irinotecan 200, raltitrexed 2.6 mg m-2), cycle 1, n=3, read-out: Raltitrexed t1/2 terminal (converted)): 7.92 days
AUC [4, 15]: 1460 ng·h/mL
Cmax [4, 15]: 0.291 µg/mL
clearance ([4]; dose level III (irinotecan 250, raltitrexed 2.6 mg m-2), cycle 1, n=3, read-out: Raltitrexed Cl (converted)): 56 mL/min
Vd ([4]; dose level III (irinotecan 250, raltitrexed 2.6 mg m-2), cycle 1, n=3, read-out: Raltitrexed Vss): 60.2 L
half-life ([4]; dose level III (irinotecan 250, raltitrexed 2.6 mg m-2), cycle 1, n=3, read-out: Raltitrexed t1/2 terminal (converted)): 14.4 days
AUC [4, 16]: 1810 ng·h/mL
Cmax [4, 16]: 0.676 µg/mL
clearance ([4]; dose level IV (irinotecan 300, raltitrexed 2.6 mg m-2), cycle 1, n=3, read-out: Raltitrexed Cl (converted)): 47.2 mL/min
Vd ([4]; dose level IV (irinotecan 300, raltitrexed 2.6 mg m-2), cycle 1, n=3, read-out: Raltitrexed Vss): 32.3 L
half-life ([4]; dose level IV (irinotecan 300, raltitrexed 2.6 mg m-2), cycle 1, n=3, read-out: Raltitrexed t1/2 terminal (converted)): 14.5 days
AUC [4, 17]: 2520 ng·h/mL
Cmax [4, 17]: 0.736 µg/mL
clearance ([4]; dose level V (irinotecan 350, raltitrexed 2.6 mg m-2), cycle 1, n=3, read-out: Raltitrexed Cl (converted)): 41.7 mL/min
Vd ([4]; dose level V (irinotecan 350, raltitrexed 2.6 mg m-2), cycle 1, n=3, read-out: Raltitrexed Vss): 30.2 L
half-life ([4]; dose level V (irinotecan 350, raltitrexed 2.6 mg m-2), cycle 1, n=3, read-out: Raltitrexed t1/2 terminal (converted)): 16.8 days
AUC [4, 18]: 2480 ng·h/mL
Cmax [4, 18]: 0.772 µg/mL
clearance ([4]; dose level VI (irinotecan 350, raltitrexed 3.0 mg m-2), cycle 1, n=6, read-out: Raltitrexed Cl (converted)): 40.2 mL/min
Vd ([4]; dose level VI (irinotecan 350, raltitrexed 3.0 mg m-2), cycle 1, n=6, read-out: Raltitrexed Vss): 25.8 L
half-life ([4]; dose level VI (irinotecan 350, raltitrexed 3.0 mg m-2), cycle 1, n=6, read-out: Raltitrexed t1/2 terminal (converted)): 12.3 days
AUC [4, 19]: 1500 ng·h/mL
Cmax [4, 19]: 0.574 µg/mL
clearance ([4]; dose level VII (irinotecan 400, raltitrexed 2.6 mg m-2), cycle 1, n=6, read-out: Raltitrexed Cl (converted)): 55.7 mL/min
Vd ([4]; dose level VII (irinotecan 400, raltitrexed 2.6 mg m-2), cycle 1, n=6, read-out: Raltitrexed Vss): 43.8 L
half-life ([4]; dose level VII (irinotecan 400, raltitrexed 2.6 mg m-2), cycle 1, n=6, read-out: Raltitrexed t1/2 terminal (converted)): 10.9 days
clearance ([4]; over all dose ranges, 27 patients, read-out: raltitrexed Cl (converted)): 51.7 mL/min
half-life ([4]; over all dose ranges, 27 patients, read-out: raltitrexed t1/2 (converted)): 12.1 days
patients with lower limb cellulitis secondary to raltitrexed ([3]; combination treatment): One
recommended dose for phase II evaluation, raltitrexed ([3]; with irinotecan 350 mg m-2 every 3 weeks (level VI)): 3.0 mg m-2
MTD, raltitrexed dose ([3]; with irinotecan 400 mg m-2, 3-weekly (level VII)): 2.6 mg m-2
raltitrexed AUC [5, 20]: 2342 ng/h/mL
raltitrexed Cmax [5, 20]: 0.737 µg/mL
raltitrexed clearance [5, 20]: 2.48 L/h
change of raltitrexed AUC in renal impairment ([5]; patients with measured creatinine clearance less than 65 ml min-1, ref Judson et al): approximately doubled
